Assay results from patent EP4471049A1 (Zealand Pharma A/S, priority 2023, dated 2024).
pIC50: −log10 of the molar value. Read-outs that look alike come from different tables or passages of the source. *1 amine or outer side, *2 acyl side, *3 side chain or, on linkers, in order; H or OH if unused. Where a SMILES comes first, the peptide text is derived from it. Bridges are numbered along the chain shown (N, C = ends). [ ]: non-standard residue; d: D form. 2Nal = N[C@@H](Cc1ccc2ccccc2c1)C(=O)O; AEF = NCCOc1ccc(C[C@H](N)C(=O)O)cc1; X1 = O=C(Cc1ccc(CN[*:1])cc1)[*:2]; 3Pal = N[C@@H](Cc1cccnc1)C(=O)O; αMeL = CC(C)C[C@](C)(N)C(=O)O; Dab = NCC[C@H](N)C(=O)O; Sar = CNCC(=O)O

Assays:
[1] = Peptide stability in simulated gastric fluid (SGF); type: in vitro ADME; conditions: pig, simulated gastric fluid (SGF) with porcine pepsin, 37 °C, pH 1.2, porcine pepsin 3.2 g/L
Summary of the method: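 Peptide incubated at 37 °C with gentle shaking in SGF (NaCl, pH 1.2). Samples centrifuged, diluted and analysed by LC-HRMS; percent remaining at each timepoint from absolute peak areas relative to time zero, with 4 h as the reference point.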

[2] = target: IL-23 mediated STAT3 signalling (Homo sapiens, UniProt Q5VWK5); experiment: Functional inhibition of IL-23 mediated STAT3 signalling (phospho-STAT3 Tyr705 MSD, DB cells); type: cell-based
Chain of IL-23 mediated STAT3 signalling (Q5VWK5 24-629 limits assumed): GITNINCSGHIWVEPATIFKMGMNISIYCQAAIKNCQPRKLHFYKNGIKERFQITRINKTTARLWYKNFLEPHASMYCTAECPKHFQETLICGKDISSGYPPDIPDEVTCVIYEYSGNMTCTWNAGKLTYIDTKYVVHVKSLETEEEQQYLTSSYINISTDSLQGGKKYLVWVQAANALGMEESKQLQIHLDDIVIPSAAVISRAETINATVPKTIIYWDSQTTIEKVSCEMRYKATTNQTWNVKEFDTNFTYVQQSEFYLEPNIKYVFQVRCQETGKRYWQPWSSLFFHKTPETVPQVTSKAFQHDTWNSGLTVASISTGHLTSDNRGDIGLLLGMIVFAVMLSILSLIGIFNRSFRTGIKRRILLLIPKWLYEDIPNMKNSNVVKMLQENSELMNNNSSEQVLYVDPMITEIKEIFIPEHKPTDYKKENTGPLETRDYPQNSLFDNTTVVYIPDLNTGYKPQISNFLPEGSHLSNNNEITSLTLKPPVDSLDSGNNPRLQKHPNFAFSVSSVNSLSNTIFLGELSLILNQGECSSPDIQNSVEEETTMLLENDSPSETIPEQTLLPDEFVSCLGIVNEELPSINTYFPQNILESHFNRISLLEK
Method: The ability of compounds to inhibit IL-23 mediated signalling was determined in the human-derived DB cell line (CRL-2289) (hereafter referred to as DB cells), which endogenously expresses the human IL-23R and human IL-12R β1 subunits. Upon binding of IL-23, the IL-23R forms a heterodimer signalling complex together with IL-12R β1, which through the JAK2/STAT3 pathway promotes phosphorylation of STAT3 to form phospho-STAT3. In the assay, the functional antagonism of IL-23 mediated phospho-STAT3 formation in DB cells by the compound is quantified using reagents capable of measuring the phosphorylation state of Tyr705 of STAT3 in the form of a phospho-STAT3 (Tyr705) MSD (Meso Scale Discovery) kit.
[…]. For compounds tested in this assay, the response was normalized relative to control values to calculate the IC50 and maximal inhibitory response from a concentration response curve of the compound in presence of a fixed concentration of human IL-23.
The assay procedure was as follows. DB cells were maintained in growth medium consisting of RPMI-1640 [Invitrogen 61870-010] supplemented with 10% V/V Foetal Bovine Serum (FBS) [(heat inactivated), Invitrogen 10270-106], and 1% V/V Penicillin-Streptomycin (Pen-Strep) Solution [Invitrogen 15140]. On the day of assay, cells were resuspended in Assay buffer consisting of RPMI-1640 [Invitrogen 61870-010] supplemented with 0.1 % w/V BSA [Sigma-Aldrich A9430] to a density of 7.5x10^6 cells/mL. Compounds to be tested for inhibition of hIL-23 mediated signalling were serially diluted in Assay buffer to 3X the final concentration. A solution of hIL-23 corresponding to 3X the EC80 of hIL-23 (1.7 nM) was also prepared in Assay buffer. To initiate the assay, 20 µL of DB cell suspension (corresponding to 150.000 cells/well) was added to the wells of a 96-well V-bottom Polypropylene plate [Corning 3363] followed by addition of 3X 20 µL of the diluted test compounds to separate wells. Following preincubation of the DB cells with inhibitor for 15 min in a cell incubator (37 °C, 5% CO2), 20 µL of the prepared 3X the EC80 of hIL-23 solution was added to each well and incubated for 90 min in a cell incubator (37 °C, 5% CO2). For some wells buffer only or IL-23 only corresponding to the EC80 was added to obtain readouts needed for normalization. To terminate the assay, the plate was spun at 1000 G for 5 min to pellet cells, the supernatant removed using an 8-channel manual pipette, and then added 50 µL/well Complete Lysis Buffer from the MSD STAT3 kit (Cat# K150SVD, Mesoscale) to the cell pellet. To completely lyse cells to release phospho-STAT3 for detection, the plate was shaken for 10 min at room temperature (500 rpm) sealed with aluminium foil and placed at -80 °C for a minimum of 15 min. Detection of the phospho-STAT3 level in the cell lysate from the individual wells was determined using the MSD STAT3 kit (Cat# K150SVD, Mesoscale) and read on a Meso QuickPlex SQ 120 plate reader (Mesoscale).
For data analysis raw data counts from the Meso QuickPlex SQ 120 plate reader were normalized relative to the response by the EC80 of hIL-23 alone (no compound added) and the buffer level. Compound potency (IC50) and maximal inhibitory response (% inhibition) were estimated by computer-aided curve fitting using a 4-parameter logistic (4PL) non-linear model. […]. Typically compounds with a low IC50 are desired. Typically compounds capable of completely inhibiting the IL23-induced response are desired. […]. Table 3-2: hIL-23 (pSTAT3) antagonist IC50 and % inhibition data

[3] = Example 2 (Tables 2-1 to 2-4), read-out: IC50 (pSTAT3)

Compound | remaining at 1 h, 10 µM [1] [%] | pIC50 [2, 3] | remaining at 4 h, 10 µM [1] [%] | pIC50 ([2]; Table 3-2, EC80 of hIL-23, read-out: hIL-23 (pSTAT3) antagonist IC50)
CC(C)C[C@]1(C)NC(=O)[C@H](Cc2ccc3ccccc3c2)NC(=O)[C@H](Cc2ccc(OCCN)cc2)NC(=O)[C@@H]2CCNC(=O)CC[C@H](NC(=O)[C@H](CO)NC(=O)Cc3ccc(cc3)CNC(=O)CC[C@@H](C(=O)N[C@@H](CCN)C(=O)N[C@@](C)(Cc3cccnc3)C(N)=O)NC1=O)C(=O)N[C@@H](Cc1c[nH]c3ccccc13)C(=O)N[C@@H](CCC(N)=O)C(=O)N2 [Compound 3, [4-Aminomethyl-phenylacetyl](1c)*SE(2c)WQ[Dab](2c)[Y(2-aminoethoxy)][2-Nal][2-Me-Leu]E(1c)[Dab][2-Me-3-(3-Pyridyl)-Ala]-[NH2]] | 99 | 8.77 |  | 
CC(C)C[C@]1(C)NC(=O)[C@H](Cc2ccc3ccccc3c2)NC(=O)[C@H](Cc2ccc(OCCN)cc2)NC(=O)[C@@H]2CCNC(=O)CC[C@H](NC(=O)[C@H](CO)NC(=O)Cc3ccc(cc3)CNC(=O)CC[C@@H](C(=O)N[C@@H](CCN)C(=O)N(C)[C@@H](Cc3cccnc3)C(N)=O)NC1=O)C(=O)N[C@@H](Cc1c[nH]c3ccccc13)C(=O)N[C@@H](CCC(N)=O)C(=O)N2 [Compound 4, [4-Aminomethyl-phenylacetyl](1c)*SE(2c)WQ[Dab](2c)[Y(2-aminoethoxy)][2-Nal][2-Me-Leu]E(1c)[Dab][N-Me-3-(3-Pyridyl)-Ala]-[NH2]] | 97 | 8.19 |  | 
CC(C)C[C@]1(C)NC(=O)[C@H](Cc2ccc3ccccc3c2)NC(=O)[C@H](Cc2ccc(OCCN)cc2)NC(=O)[C@@H]2CCNC(=O)CC[C@H](NC(=O)[C@H](CO)NC(=O)Cc3ccc(cc3)CNC(=O)CC[C@@H](C(=O)N[C@@H](CCN)C(=O)NCCCCc3cccnc3)NC1=O)C(=O)N[C@@H](Cc1c[nH]c3ccccc13)C(=O)N[C@@H](CCC(N)=O)C(=O)N2 [Compound 6, [4-Aminomethyl-phenylacetyl](1c)*SE(2c)WQ[Dab](2c)[Y(2-aminoethoxy)][2-Nal][2-Me-Leu]E(1c)[Dab]-[NH-(4-(pyridin-3-yl)butanyl)]] |  | 8.49 |  | 
CC(C)C[C@]1(C)NC(=O)[C@H](Cc2ccc3ccccc3c2)NC(=O)[C@H](Cc2ccc(OCCN)cc2)NC(=O)[C@@H]2CCNC(=O)CC[C@H](NC(=O)[C@H](CO)NC(=O)Cc3ccc(cc3)CNC(=O)CC[C@@H](C(=O)N[C@@H](CCN)C(=O)NCCc3cccnc3)NC1=O)C(=O)N[C@@H](Cc1c[nH]c3ccccc13)C(=O)N[C@@H](CCC(N)=O)C(=O)N2 [Compound 7, [4-Aminomethyl-phenylacetyl](1c)*SE(2c)WQ[Dab](2c)[Y(2-aminoethoxy)][2-Nal][2-Me-Leu]E(1c)[Dab]-[NH-(2-(pyridin-3-yl)ethyl)]] | 77 | 9.89 | 82 | 
CC(C)C[C@]1(C)NC(=O)[C@H](Cc2ccc3ccccc3c2)NC(=O)[C@H](Cc2ccc(OCCN)cc2)NC(=O)[C@@H]2CCNC(=O)CC[C@H](NC(=O)[C@H](CO)NC(=O)Cc3ccc(cc3)CNC(=O)CC[C@@H](C(=O)N[C@@H](CCN)C(=O)N[C@@H](Cc3cccnc3)C(=O)N(C)CC(N)=O)NC1=O)C(=O)N[C@@H](Cc1c[nH]c3ccccc13)C(=O)N[C@@H](CCC(N)=O)C(=O)N2 [Compound 9, [4-Aminomethyl-phenylacetyl](1c)*SE(2c)WQ[Dab](2c)[Y(2-aminoethoxy)][2-Nal][2-Me-Leu]E(1c)[Dab][3-(3-Pyridyl)-Ala][Sar]-[NH2]] ([X1]SEWQ[Dab][AEF][2Nal][αMeL]E[Dab][3Pal][Sar]-NH2; lactam 3-6, N-10) | 96 | 10.60 |  | 

The next lines start with the values.

remaining at 1 h, 10 µM [1] [%] | pIC50 [2, 3] | remaining at 4 h, 10 µM [1] [%] | pIC50 ([2]; Table 3-2, EC80 of hIL-23, read-out: hIL-23 (pSTAT3) antagonist IC50) | Compound
99 | 8.68 |  |  | CC(C)C[C@]1(C)NC(=O)[C@H](Cc2ccc3ccccc3c2)NC(=O)[C@H](Cc2ccc(OCCN)cc2)NC(=O)[C@@H]2CCNC(=O)CC[C@H](NC(=O)[C@H](CO)NC(=O)Cc3ccc(cc3)CNC(=O)CC[C@@H](C(=O)N[C@@H](CCN)C(=O)N[C@H](Cc3cccnc3)C(N)=O)NC1=O)C(=O)N[C@@H](Cc1c[nH]c3ccccc13)C(=O)N[C@@H](CCC(N)=O)C(=O)N2 [Compound 5, [4-Aminomethyl-phenylacetyl](1c)*SE(2c)WQ[Dab](2c)[Y(2-aminoethoxy)][2-Nal][2-Me-Leu]E(1c)[Dab][{d}3-(3-Pyridyl)-Ala]-[NH2]]
 | 10.28 |  |  | CNC(=O)[C@H](Cc1cccnc1)NC(=O)[C@H](CCN)NC(=O)[C@@H]1CCC(=O)NCc2ccc(cc2)CC(=O)N[C@@H](CO)C(=O)N[C@H]2CCC(=O)NCC[C@H](NC(=O)[C@H](CCC(N)=O)NC(=O)[C@H](Cc3c[nH]c4ccccc34)NC2=O)C(=O)N[C@@H](Cc2ccc(OCCN)cc2)C(=O)N[C@@H](Cc2ccc3ccccc3c2)C(=O)N[C@@](C)(CC(C)C)C(=O)N1 [Compound 8, [4-Aminomethyl-phenylacetyl](1c)*SE(2c)WQ[Dab](2c)[Y(2-aminoethoxy)][2-Nal][2-Me-Leu]E(1c)[Dab][3-(3-Pyridyl)-Ala]-[NHMe]]
97 | 10.42 | 86 |  | CC(C)C[C@]1(C)NC(=O)[C@H](Cc2ccc3ccccc3c2)NC(=O)[C@H](Cc2ccc(OCCN)cc2)NC(=O)[C@@H]2CCNC(=O)CC[C@H](NC(=O)[C@H](CO)NC(=O)Cc3ccc(cc3)CNC(=O)CC[C@@H](C(=O)N[C@@H](CCN)C(=O)N[C@@H](Cc3cccnc3)C(=O)N[C@H](Cc3c[nH]cn3)C(N)=O)NC1=O)C(=O)N[C@@H](Cc1c[nH]c3ccccc13)C(=O)N[C@@H](CCC(N)=O)C(=O)N2 [Compound 10, [4-Aminomethyl-phenylacetyl](1c)*SE(2c)WQ[Dab](2c)[Y(2-aminoethoxy)][2-Nal][2-Me-Leu]E(1c)[Dab][3-(3-Pyridyl)-Ala][{d}H]-[NH2]] ([X1]SEWQ[Dab][AEF][2Nal][αMeL]E[Dab][3Pal][dH]-NH2; lactam 3-6, N-10)
 |  | 93 | 8.46 | CC(C)C[C@]1(C)NC(=O)[C@H](Cc2ccc3ccccc3c2)NC(=O)[C@H](Cc2ccc(OCCN)cc2)NC(=O)[C@@H]2CCNC(=O)CC[C@H](NC(=O)[C@H](CO)NC(=O)Cc3ccc(cc3)CNC(=O)CC[C@@H](C(=O)N[C@@H](CCN)C(=O)N[C@@H](Cc3c[nH]cn3)C(=O)N[C@@H](Cc3cccnc3)C(N)=O)NC1=O)C(=O)N[C@@H](Cc1c[nH]c3ccccc13)C(=O)N[C@@H](CCC(N)=O)C(=O)N2 [Compound 12, [4-Aminomethyl-phenylacetyl](1c)*SE(2c)WQ[Dab](2c)[Y(2-aminoethoxy)][2-Nal][2-Me-Leu]E(1c)[Dab]H[3-(3-Pyridyl)-Ala]-[NH2]] ([X1]SEWQ[Dab][AEF][2Nal][αMeL]E[Dab]H[3Pal]-NH2; lactam 3-6, N-10)
 | 8.17 | 78 |  | CC(C)C[C@]1(C)NC(=O)[C@H](Cc2ccc3ccccc3c2)NC(=O)[C@H](Cc2ccc(OCCN)cc2)NC(=O)[C@@H]2CCNC(=O)CC[C@H](NC(=O)[C@H](CO)NC(=O)Cc3ccc(cc3)CNC(=O)CC[C@@H](C(=O)N[C@@H](CCN)C(=O)N[C@H](Cc3c[nH]cn3)C(N)=O)NC1=O)C(=O)N[C@@H](Cc1c[nH]c3ccccc13)C(=O)N[C@@H](CCC(N)=O)C(=O)N2 [Compound 13, [4-Aminomethyl-phenylacetyl](1c)*SE(2c)WQ[Dab](2c)[Y(2-aminoethoxy)][2-Nal][2-Me-Leu]E(1c)[Dab][{d}H]-[NH2]]
